Patent US20140193827A1 (TEVA PHARMACEUTICAL INDUSTRIES, LTD., priority 2013, published 2014)

System: GA-primed murine splenocytes
Test: Tolerance method for assessing process variability
Settings: microarray; splenocytes activated 24 hours

With glatiramer acetate [GA] the “AVG expression of 1110067B18RIK, probe ILMN_2514723” value was 8.228, the “AVG expression of 1190002H23RIK, probe ILMN_2593774” value was 7.583 and the “AVG expression of 1700129I04RIK, probe ILMN_1224390” value was 6.752. The “AVG expression of 2810485I05RIK, probe ILMN_2695217” value was 10.37, the “AVG expression of A130087I02RIK, probe ILMN_1232144” value was 6.482 and the “AVG expression of A630077B13RIK, probe ILMN_1249864” value was 9.099. For the same substance, the “AVG expression of A930005H10RIK, probe ILMN_1250135” value was 10.04, the “AVG expression of ADA, probe ILMN_2686132” value was 7.525 and the “AVG expression of AI467606, probe ILMN_1213645” value was 10.38. For the same substance, the “AVG expression of ANKRD11, probe ILMN_2727235” value was 9.978, the “AVG expression of APPL2, probe ILMN_1219978” value was 7.742 and the “AVG expression of ARHGAP4, probe ILMN_2677876” value was 11.38. The “AVG expression of ARRB2, probe ILMN_2700848” value was 9.049, the “AVG expression of AVIL, probe ILMN_2753149” value was 6.407 and the “AVG expression of B3GNT7, probe ILMN_2655571” value was 6.563. For the same substance, the “AVG expression of B230345P09RIK, probe ILMN_2469190” value was 8.997, the “AVG expression of BATF3, probe ILMN_2526739” value was 6.73 and the “AVG expression of BC038822, probe ILMN_2804103” value was 7.38. For the same substance, the “AVG expression of BC065085, probe ILMN_2974737” value was 7.582, the “AVG expression of BEX4, probe ILMN_3118584” value was 6.717 and the “AVG expression of BLVRB, probe ILMN_2770917” value was 9.003. The “AVG expression of C3, probe ILMN_2759484” value was 8.352, the “AVG expression of C130078N17RIK, probe ILMN_2522495” value was 10.34 and the “AVG expression of C230082I21RIK, probe ILMN_1248824” value was 8.744. The “AVG expression of C430002D13RIK, probe ILMN_2571616” value was 7.951, the “AVG expression of CCND2, probe ILMN_1225932” value was 8.425 and the “AVG expression of CCNG1, probe ILMN_2710229” value was 8.72. For the same substance, the “AVG expression of CCR6, probe ILMN_2888448” value was 11.42, the “AVG expression of CD44, probe ILMN_1223697” value was 10.12 and the “AVG expression of CHD3, probe ILMN_2524861” value was 7.978. The “AVG expression of CHKA, probe ILMN_3026397” value was 12.08, the “AVG expression of CLASP1, probe ILMN_1225769” value was 7.92 and the “AVG expression of CLIC4, probe ILMN_2599018” value was 7.206. For the same substance, the “AVG expression of CLSPN, probe ILMN_2858359” value was 8.857, the “AVG expression of CRTC3, probe ILMN_1248891” value was 8.262 and the “AVG expression of CSNK1G3, probe ILMN_2793946” value was 9.73. For the same substance, the “AVG expression of CYP51, probe ILMN_2688075” value was 9.707, the “AVG expression of DEADC1, probe ILMN_2705097” value was 9.246 and the “AVG expression of DGKZ, probe ILMN_1239607” value was 8.46. For the same substance, the “AVG expression of DLM1-PENDING, probe ILMN_1218547” value was 6.869, the “AVG expression of DYRK2, probe ILMN_3138439” value was 6.905 and the “AVG expression of E2F3, probe ILMN_2743503” value was 7.726. The “AVG expression of EG433016, probe ILMN_2995688” value was 8.853, the “AVG expression of ENTPD5, probe ILMN_3149143” value was 7.434 and the “AVG expression of F2RL1, probe ILMN_2769567” value was 6.312. For the same substance, the “AVG expression of FBXO4, probe ILMN_2772920” value was 9.934, the “AVG expression of FOSL2, probe ILMN_1252481” value was 8.057 and the “AVG expression of FOXP3, probe ILMN_2917180” value was 7.709. The “AVG expression of FSCN1, probe ILMN_2630605” value was 8.879, the “AVG expression of FXYD5, probe ILMN_1235493” value was 10.05 and the “AVG expression of GAB3, probe ILMN_3133748” value was 7.208. The “AVG expression of GRN, probe ILMN_2595973” value was 10.66, the “AVG expression of H3F3B, probe ILMN_1231168” value was 8.812 and the “AVG expression of HAMP, probe ILMN_1236304” value was 6.455. The “AVG expression of HEG1, probe ILMN_2600022” value was 7.682, the “AVG expression of HIST2H2AA1, probe ILMN_2751948” value was 7.127 and the “AVG expression of HTT, probe ILMN_2672091” value was 7.448. The “AVG expression of IFITM1, probe ILMN_2814484” value was 7.066, the “AVG expression of IFNGR2, probe ILMN_2784272” value was 9.806 and the “AVG expression of IGK-V5, probe ILMN_2631259” value was 11.21. For the same substance, the “AVG expression of IL1A, probe ILMN_1227018” value was 8.103, the “AVG expression of IL13, probe ILMN_2927131” value was 6.7 and the “AVG expression of IRF8, probe ILMN_2673369” value was 10.92. For the same substance, the “AVG expression of KIF1B, probe ILMN_2587761” value was 6.394, the “AVG expression of LDHA, probe ILMN_1257965” value was 12.99 and the “AVG expression of LOC386005, probe ILMN_2538029” value was 10.77. The “AVG expression of LOC637711, probe ILMN_1239601” value was 8.053, the “AVG expression of LOC677643, probe ILMN_1225733” value was 9.931 and the “AVG expression of LOC100043671, probe ILMN_1258600” value was 9.958. For the same substance, the “AVG expression of LOC100046496, probe ILMN_1229263” value was 10.5, the “AVG expression of LOC100046793, probe ILMN_2469743” value was 12 and the “AVG expression of LOC100047316, probe ILMN_1215825” value was 8.765. For the same substance, the “AVG expression of LY78, probe ILMN_2585533” value was 7.951, the “AVG expression of MSH5, probe ILMN_1241923” value was 6.819 and the “AVG expression of NFAT5, probe ILMN_2612448” value was 9.617. For the same substance, the “AVG expression of NKG7, probe ILMN_1217855” value was 9.69, the “AVG expression of PEA15, probe ILMN_2624938” value was 8.032 and the “AVG expression of PEX11C, probe ILMN_2467365” value was 6.162. The “AVG expression of RABAC1, probe ILMN_1244857” value was 10.79, the “AVG expression of RDM1, probe ILMN_1218934” value was 9.296 and the “AVG expression of RFC3, probe ILMN_2543834” value was 7.31. For the same substance, the “AVG expression of RNF167, probe ILMN_2892856” value was 9.181, the “AVG expression of RUNDC3B, probe ILMN_2660596” value was 7.1822 and the “AVG expression of SCN4A, probe ILMN_2814847” value was 7.299. The “AVG expression of SDF2L1, probe ILMN_1221943” value was 9.843, the “AVG expression of SERPINA3H, probe ILMN_2889832” value was 7.95 and the “AVG expression of SGCB, probe ILMN_1255256” value was 7.292.
